B1: Lysozyme Ch: Lysozyme from fungus Chalaropsis species, N,O-diacetylmuramidase, corrected sequence SEQ ID NO:1 (protein, listed as Chalaropsis sp.)
chain: TVQGFDISSYQPSVNFAGAYSAGARFVIIKATEGTSYTNPSFSSQYTGATNAGFIRGGYHFAHPGETTGAAQADYFIAHGGGWSGDGITLPGMLDLESEGSNPACWGLSAASMVAWIKAFSDRYHAVTGRYPMLYTNPSWWSSCTGNSNAFVNTNPLVLARYASAPGTIPGGWPYQTIWQNSDAYAYGGDSNIFNGSADNLKKLATG

What was measured:
Staphylococcus cell wall = assay: Lysozyme Ch activity, turbidimetric rate determination with Staphylococcus cell wall (absorbance at 600 nm); format: biochemical; conditions: 50 mM Sodium acetate Buffer, pH 4.8, 25° C.
Method: In one example, the Chalaropsis Lysozyme PEGylation was carried out using the steps as follows: (1) 15 mg of Chalaropsis Lysozyme and 1.05 g of Methoxypolyethylene glycol succinimidyl succinate (MPSS) was added into 0.1 M Sodium phosphate buffer to make final volume of 10 ml. (2) The mixture was allowed to shake on a rotator for 120 hours. The mixture was run on a SDS-PAGE to verify PEGylation (FIG. 1). (3) The mixture was concentrated with a YM-10 centriprep to a final volume of 1 ml. (4) The protein was loaded onto a XK16 column packed with Sephacryl S-300 resin. Fractions were collected every 2 min, i.e. 2 mls. (5) The following fractions are run on two gels (FIG. 2 and FIG. 3): • Gel1: MW, 28, 30, 35, 40, 45, 50, 55, 60, 65 • Gel2: MW, 70, 75, 80, 83, 85, 90, 95, 99, 105. (6) Based on the gel, it was decided that fractions around tube 55 was fully PEGylated, and thus fractions 53 to 57 were pooled and concentrated. (7) Activity was tested at 1 mg/ml for both native and PEGylated protein. […] PEGylation of Lysozyme Ch
Lysozyme Ch activity was measured with Staphylococcus cell wall in 50 mM Sodium acetate Buffer, pH 4.8 at 25° C. Absorbance at 600 nm is monitored for the turbidimetric rate determination on an Ultrospec 2000 spectrophotometer (Ref. 2).

[1] = test system: Micrococcus lysodeikticus cells; assay: HEW Lysozyme activity, turbidimetric rate determination with Micrococcus lysodeikticus cells (absorbance at 450 nm); format: biochemical; conditions: 50 mM Potassium Phosphate Buffer, pH 6.24, 25° C.
Method: HEW Lysozyme activity was tested with Micrococcus lysodeikticus cells in 50 mM Potassium Phosphate Buffer, pH 6.24 at 25° C. Absorbance at 450 nm is monitored for the turbidimetric rate determination on an Ultrospec 2000 spectrophotometer (ref).

| Molecule | Activity against Staphylococcus cell wall (Staphylococcus cell wall) | Activity with Micrococcus lysodeikticus cells (FIG. 6) [1] |
| --- | --- | --- |
| HEW Lysozyme: HEW Lysozyme used as a control | no activity | reduces the absorbance in a non-linear way |
| PEGylated HEW Lysozyme: HEW Lysozyme PEGylated with MPSS as a control experiment, with or without inhibitors |  | lost its entire activity |
| B1 | excellent activity |  |

— patent publication US7662607B2, “Chalaropsis lysozyme protein and its method of use in anti-bacterial applications” (New Century Pharmaceuticals, Inc., priority 2003, dated 2010)
